How the values were obtained:
[1] = target: T1, Calmodulin-sensitive adenylate cyclase (Bacillus anthracis, UniProt P40136); assay: Inhibition of Bacillus anthracis Edema factor
T1 sequence (P40136 whole entry): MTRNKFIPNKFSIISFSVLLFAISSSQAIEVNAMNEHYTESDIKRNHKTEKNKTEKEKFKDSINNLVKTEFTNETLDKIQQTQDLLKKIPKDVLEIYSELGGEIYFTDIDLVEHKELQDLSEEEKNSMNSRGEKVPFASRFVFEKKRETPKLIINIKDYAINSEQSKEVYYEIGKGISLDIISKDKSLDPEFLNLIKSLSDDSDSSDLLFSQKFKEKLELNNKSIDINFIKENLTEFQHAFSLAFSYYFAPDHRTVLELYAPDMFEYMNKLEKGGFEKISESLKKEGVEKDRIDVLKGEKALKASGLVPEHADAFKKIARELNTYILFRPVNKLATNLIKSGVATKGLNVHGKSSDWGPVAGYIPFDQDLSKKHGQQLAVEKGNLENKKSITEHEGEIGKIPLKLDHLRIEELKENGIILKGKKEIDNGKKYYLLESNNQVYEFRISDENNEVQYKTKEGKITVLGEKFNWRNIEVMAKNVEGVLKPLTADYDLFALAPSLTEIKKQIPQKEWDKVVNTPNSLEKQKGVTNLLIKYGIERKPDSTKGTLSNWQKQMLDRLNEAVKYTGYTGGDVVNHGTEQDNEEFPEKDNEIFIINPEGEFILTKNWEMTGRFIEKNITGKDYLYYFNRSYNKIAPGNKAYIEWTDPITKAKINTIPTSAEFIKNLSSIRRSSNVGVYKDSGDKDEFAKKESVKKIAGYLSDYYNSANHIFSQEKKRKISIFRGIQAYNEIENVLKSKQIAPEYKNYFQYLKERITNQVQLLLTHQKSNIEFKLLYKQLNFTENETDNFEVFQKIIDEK

[2] = tested on: HL-60; assay: Cytotoxicity against human HL-60 cells by CellTiter-Glo 2.0 assay; format: functional, cell-based
[3] = tested on: HepG2; assay: Cytotoxicity against human HepG2 cells by CellTiter-Glo 2.0 assay; format: functional, cell-based
[4] = tested on: HeLa S3; assay: Cytotoxicity against human HeLa S3 cells by CellTiter-Glo 2.0 assay; format: functional, cell-based
[5] = tested on: HEK293; assay: Cytotoxicity against AC1 expressed HEK293 cells by CellTiter-Glo 2.0 assay relative to control; format: toxicity, cell-based; design: concentration or dose not given beside the values; conditions: human
[6] = Cytotoxicity against mouse J774.A1 cells assessed as cell viability at 10 uM incubated for 5 hrs by Cell Titer-Glo Luminescent Cell Viability assay relative to control; format: toxicity, cell-based; conditions: read-out: Activity
[7] = tested on: CCRF-CEM; assay: Cytotoxicity against human CCRF-CEM cells by CellTiter-Glo 2.0 assay; format: functional, cell-based
[8] = tested on: NHDF; assay: Cytotoxicity against human NHDF cells by CellTiter-Glo 2.0 assay; format: toxicity, cell-based
[9] = Inhibition of Bordetella pertussis Adenylate cyclase toxin in mouse J774.A1 cells preincubated for 5 hrs followed by ACT addition and measured after 30 mins by CatchPointcAMP immunoassay method; format: cell-based

SMILES | IC50 [1] | IC50 [2] | IC50 [3] | IC50 [4] | Activity [5] | viability at 5 h, 10 µM [6] | IC50 [7] | IC50 [8] | IC50 [9]
Nc1ncnc2c1ncn2CCOCP(=O)(O)OP(=O)(O)OP(=O)(O)O [ADEFOVIR DIPHOSPHATE] | 0.0135 µM |  |  |  |  |  |  |  | 
COc1cccc(-c2cn(CCOCP(=O)(N[C@@H](Cc3ccccc3)C(=O)OC(C)C)N[C@@H](Cc3ccccc3)C(=O)OC(C)C)c3ncnc(N)c23)c1 |  | 5.47 µM | 13.9 µM | 9.16 µM | -14% | 94% | 4.85 µM | > 10 µM | 4.8 µM
CC(C)OC(=O)[C@H](Cc1ccccc1)NP(=O)(COCCn1cc(-c2ccccn2)c2c(N)ncnc21)N[C@@H](Cc1ccccc1)C(=O)OC(C)C |  | 5.18 µM | > 10 µM | 7.86 µM | -17% | 104% | 5.77 µM | > 10 µM | 1.06 µM
CC(C)OC(=O)[C@H](Cc1ccccc1)NP(=O)(COCCn1cc(-c2cccc(C(=O)O)c2)c2c(N)ncnc21)N[C@@H](Cc1ccccc1)C(=O)OC(C)C |  | > 10 µM | > 10 µM | > 10 µM | 115% | 104% | > 10 µM | > 10 µM | 6.09 µM
CC(C)OC(=O)[C@H](Cc1ccccc1)NP(=O)(COCCn1cc(-c2cncnc2)c2c(N)ncnc21)N[C@@H](Cc1ccccc1)C(=O)OC(C)C |  | > 10 µM | > 10 µM | > 10 µM | 102% | 128% | > 10 µM | > 10 µM | > 10 µM
Nc1ncnc2c1c(-c1ccccn1)cn2CCOCP(=O)(O)OP(=O)(O)OP(=O)(O)O | 0.0508 µM |  |  |  |  |  |  |  | 0.108 µM
CC(C)OC(=O)[C@H](Cc1ccccc1)NP(=O)(COCCn1cc(-c2cccc(S(N)(=O)=O)c2)c2c(N)ncnc21)N[C@@H](Cc1ccccc1)C(=O)OC(C)C |  | 4.8 µM | > 10 µM | > 10 µM | 110% | 114% | 5.56 µM | > 10 µM | 3.41 µM
COc1ccc(-c2cn(CCOCP(=O)(O)OP(=O)(O)OP(=O)(O)O)c3ncnc(N)c23)cc1 | 0.0884 µM |  |  |  |  |  |  |  | 0.186 µM
C=C(C)c1cn(CCOCP(=O)(N[C@@H](Cc2ccccc2)C(=O)OC(C)C)N[C@@H](Cc2ccccc2)C(=O)OC(C)C)c2ncnc(N)c12 |  | 4.62 µM | 8.73 µM | > 10 µM | 31% | 81% | 5.64 µM | > 10 µM | > 10 µM
Cc1cn(CCOCP(=O)(O)OP(=O)(O)OP(=O)(O)O)c2ncnc(N)c12 | 0.108 µM |  |  |  |  |  |  |  | 0.062 µM
CC(C)OC(=O)[C@H](Cc1ccccc1)NP(=O)(COCCn1cc(-c2cccs2)c2c(N)ncnc21)N[C@@H](Cc1ccccc1)C(=O)OC(C)C |  | 0.56 µM | 1.02 µM | 1.09 µM | -9% | 36% | 0.79 µM | 0.4 µM | 
COc1ccccc1-c1cn(CCOCP(=O)(N[C@@H](Cc2ccccc2)C(=O)OC(C)C)N[C@@H](Cc2ccccc2)C(=O)OC(C)C)c2ncnc(N)c12 |  | 6.61 µM | 4.57 µM | 3.65 µM | -12% | 112% | 6.2 µM | > 10 µM | 2.17 µM
CCOC(=O)[C@H](C)NP(=O)(COCCn1cc(-c2ccc(OC)cc2)c2c(N)ncnc21)Oc1ccccc1 (stereo not given in full) |  | > 10 µM | > 10 µM | > 10 µM |  | 104% | > 10 µM | > 10 µM | 5.41 µM
Cc1cn(CCOCP(=O)(N[C@@H](Cc2ccccc2)C(=O)OC(C)C)N[C@@H](Cc2ccccc2)C(=O)OC(C)C)c2ncnc(N)c12 |  | 7.33 µM | 9.73 µM | > 10 µM | 93% | 112% | > 10 µM | > 10 µM | 1.47 µM
